Measured values: patent US8188053B2, “Anti-inflammatory peptides” (The University of Manchester, priority 2005, dated 2012)
“Also recorded” adds a separate entry of the source.

Key:
Type in all cases: in vivo
[1] = system: allergen (oxazolone) induced Langerhans Cell (LC) migration; assay: allergen (oxazolone) induced Langerhans Cell (LC) migration after prior topical application of peptide; conditions: for inhibition of allergen-induced LC migration: prior topical exposure to peptide, subsequent oxazolone at the same site; for biological activity (epidermal LC migration), equimolar comparison: equimolar doses (1.38 μM): 0.5 μg hTRX, 0.04 μg 9-mer, 0.025 μg KMIKP, 0.016 μg CGPC
Method: Various tissue studies are conducted to examine the effect of each of the aforementioned polypeptides on allergen (oxazolone) induced Langerhans Cell (LC) migration. Applications are in μg unless otherwise stated.
The purpose of this experiment is to determine whether topical application of peptide 1 is able to influence the integrity of LC migration induced by subsequent exposure at the same site to oxazolone, a potent contact allergen known to cause the mobilization of LC. The results of a representative experiment are illustrated in FIG. 1.
The purpose of this experiment is to determine whether topical application of peptide 3 is able to influence the integrity of LC migration induced by subsequent exposure at the same site to oxazolone. The results of three independent experiments are illustrated in FIG. 2. […] The conclusion drawn is that topically applied peptide 3 is able to inhibit one or more biological processes required for the effective mobilization and migration of LC in response to a stimulus, in this instance the contact allergen oxazolone.

[2] = system: Langerhans Cell migration induced by IL-1β; assay: Langerhans Cell migration provoked by intradermal administration of homologous IL-1β after prior topical peptide; conditions: prior topical exposure; id administration of homologous IL-1β
Text: (§1) The purpose of this experiment is to investigate whether the 9-mer peptide (CGPCKMIKP; SEQ ID NO: 9) could affect Langerhans Cell migration induced by either IL-1β or TNF-α. The results of a representative experiment are illustrated in FIG. 9. […] The interpretation is that topical administration of the 9-mer peptide is associated with a perturbation of IL-1β function.

[3] = system: Langerhans Cell migration induced by TNF-α; assay: Langerhans Cell migration induced by intradermal injection of homologous TNF-α after prior topical peptide; conditions: prior topical exposure; intradermal (id) injection of homologous TNF-α
Text: as §1

| Molecule | inhibition of allergen-induced LC migration [1] | biological activity (epidermal LC migration), equimolar comparison [1] | further results |
| --- | --- | --- | --- |
| AGPAKMIKP [cysteine free 9-mer peptide] | active |  |  |
| ANKEKLEATINELV [peptide 7] | does not inhibit |  |  |
| CGPC [reference compound] |  | all but the CGPC (SEQ ID NO: 22) peptide appear to exhibit biological activity |  |
| CGPCKMIKP [9-mer peptide] | activity of the 9-mer peptide at all doses tested; also recorded: active | appear to exhibit biological activity | influence on Langerhans Cell migration provoked by IL-1β [2]: without influence; inhibition of Langerhans Cell migration induced by TNF-α [3]: almost complete inhibition; inhibition of allergen-induced LC migration ([1]; listed as 9-mer): active |
| CGPCKMIKPFFHSLSEKYSN [peptide 3] | some indication for a dose-related inhibition; also recorded: substantial inhibition; also recorded: active |  | inhibition of allergen-induced LC migration at the highest concentration tested ([1]; highest concentration (0.5 μg) tested, three independent experiments, oxazolone): complete (or near complete) inhibition; variation in activity between peptide synthesis batches ([1]; two independent preparations of peptide 3, oxazolone-induced LC migration): only a small variation in activity |
| IPCMPKCKG [scrambled 9-mer, reference compound] | not biologically active |  |  |
| KMIKP |  | appear to exhibit biological activity |  |
| KMIMP | active |  |  |
| SATYCGPCKMIKP [peptide RV-1] | does inhibit; also recorded: active |  |  |
| VKQIESKTAFQEALDAAGDK [peptide 1] | does not inhibit |  |  |
| hTRX: Recombinant human thioredoxin (SEQ ID NO. 14), from which the peptides of the invention are derived (protein, listed as Homo sapiens) MVKQIESKTAFQEALDAAGDKLVVVDFSATWCGPCKMIKPFFHSLSEKYSNVIFLEVDVDDCQDVASECEVKCMPTFQFFKKGQKVGEFSGANKEKLEATINELV |  | appear to exhibit biological activity |  |
